Test results taken from paper PMC11141866, “Pyrimidine depletion enhances targeted and immune therapy combinations in acute myeloid leukemia” (JCI Insight, 2024).
“And” between values parts separate entries of the source, which are not always exact repeats. Equal values may be shown once.

Key:
[1] = system: plasma DHO; experiment: DHO plasma accumulation in MOLM-13 tumor-bearing mice; type: in vivo, NCG mice; design: unit not given here; conditions: 10 mpk PO, female mice, per mouse, 10 mg/kg
[2] = system: plasma dihydroorotate (DHO); experiment: Single-dose PD: plasma DHO accumulation in mice; type: in vivo, male C57BL/6 mice; conditions: HOSU-53 10 mpk PO, per mouse
Procedure: (§1) In the i.v. cohort, serial blood samples were collected in tubes containing K2EDTA at 0.083, 0.25, 0.5, 1, 2, 6, 24, 48, and 72 hours postdose while in the oral gavage cohort, serial blood samples were collected at 0.25, 0.5, 1, 2, 4, 8, 24, 48, and 72 hours postdose. Blood samples were processed to plasma to analyze for HOSU-53 and L-dihydroorotic acid (DHO) concentrations using liquid chromatography-tandem mass spectrometry. page 6: Plasma samples were obtained following appropriate dosing administration and saved in the -80°C freezer till the time of analysis. Analyses by LC-MS/MS followed sample extraction by protein precipitation and separation by Ultra Performance Liquid Chromatography (UPLC, Waters Corporation, MA, USA) using a C18 column, 1.7um, 2.1x50mm, Mobile Phase A: 5:95:0.1 (v:v:v) Acetonitrile:Water:Formic Acid, Mobile Phase B: 50:50:0.1 (v:v:v) Methanol:Acetonitrile:Formic Acid. MS/MS analyses were performed on an API-6500 (Absciex MA, USA) in positive mode using an electrospray source at 550°C. The internal standard was d4-AEA monitored at 352.2 and 66.0 m/z transitions and the target analyte, HOSU-53, was monitored at 416.5 and 331.1 m/z transitions. The assay was qualified between 10-5,000 ng/ml HOSU53 to be within ±20% for QCs above the LLOQ in this range and ±25% at the LLOQ. DHO concentration quantification in mouse plasma samples. Plasma samples were obtained following appropriate dosing administration and saved in the -80°C freezer till the time of analysis. Analyses by LC-MS/MS followed sample extraction by protein precipitation and separation by Ultra Performance Liquid Chromatography (UPLC, Waters Corporation, MA, USA) using a Phenomenex Aqua C18 100x4.6mm, 3uM, […], Mobile Phase A: 100:0.1 (v:v) Water:Formic Acid, Mobile Phase B: 100:0.1 (v:v) Methanol:Formic Acid. MS/MS analyses were performed on an API-4000 (Absciex MA, USA) in negative mode using an electrospray source at 550°C. The internal standard was labeled 13C14_L-Dihydroorotic Acid monitored at 161.3 and 117.1 m/z transitions and the target analyte, L-Dihydroorotic Acid (DHO), was monitored at 157.0 and 70.0 m/z transitions. The assay was qualified between 10.0-30,000 ng/ml DHO to be within ±20% for QCs above the LLOQ in this range and ±25% at the LLOQ.

[3] = system: panel of approximately 450 human kinases; experiment: KINOMEscan profiling; type: binding; conditions: 10 μM
Procedure: Supplemental Figure S.1. HOSU-53 KINOMEscan™ Profiling. Eurofins DiscoverX KINOMEscan®
Profiling was conducted using 10 μM HOSU-53 to investigate the presence of any off-target kinase
(§2) (1 picture or pasted object on this page, not shown here)

[4] = system: MOLM-13 disseminated CDX AML model; experiment: MOLM-13 CDX synergy with anti-CD38 immunotherapy; type: in vivo, NCG mice; conditions: HOSU53 10 mpk qd; event 1 = death; 10 mg/kg
Procedure: Male 8- to 12-week-old male NCG mice were engrafted with 1 × 10^5 cells via tail vein i.v. injection. […] Figure 7, B and C, and Supplemental Figure 7, A and B, share 2 combined vehicle groups (n = 16 total).
Supplemental Figure S.7. […] Using the
daratumumab (Dara) (A) or biwk 2.5 mg/kg i.p isatuximab, Isa (B) anti-CD38 antibodies or a
Treatment was stopped at day
80. Adjusted FDR p-value *<0.05, nonsignificant (ns) ≥0.05.
Both Supplementary Figure S.7, A and B share the same vehicle and 4 mg/kg
as §2

[5] = molecular target: hERG (Homo sapiens, UniProt Q12809); experiment: hERG (Q-Patch); type: cell-based
Sequence of hERG (Q12809 whole entry): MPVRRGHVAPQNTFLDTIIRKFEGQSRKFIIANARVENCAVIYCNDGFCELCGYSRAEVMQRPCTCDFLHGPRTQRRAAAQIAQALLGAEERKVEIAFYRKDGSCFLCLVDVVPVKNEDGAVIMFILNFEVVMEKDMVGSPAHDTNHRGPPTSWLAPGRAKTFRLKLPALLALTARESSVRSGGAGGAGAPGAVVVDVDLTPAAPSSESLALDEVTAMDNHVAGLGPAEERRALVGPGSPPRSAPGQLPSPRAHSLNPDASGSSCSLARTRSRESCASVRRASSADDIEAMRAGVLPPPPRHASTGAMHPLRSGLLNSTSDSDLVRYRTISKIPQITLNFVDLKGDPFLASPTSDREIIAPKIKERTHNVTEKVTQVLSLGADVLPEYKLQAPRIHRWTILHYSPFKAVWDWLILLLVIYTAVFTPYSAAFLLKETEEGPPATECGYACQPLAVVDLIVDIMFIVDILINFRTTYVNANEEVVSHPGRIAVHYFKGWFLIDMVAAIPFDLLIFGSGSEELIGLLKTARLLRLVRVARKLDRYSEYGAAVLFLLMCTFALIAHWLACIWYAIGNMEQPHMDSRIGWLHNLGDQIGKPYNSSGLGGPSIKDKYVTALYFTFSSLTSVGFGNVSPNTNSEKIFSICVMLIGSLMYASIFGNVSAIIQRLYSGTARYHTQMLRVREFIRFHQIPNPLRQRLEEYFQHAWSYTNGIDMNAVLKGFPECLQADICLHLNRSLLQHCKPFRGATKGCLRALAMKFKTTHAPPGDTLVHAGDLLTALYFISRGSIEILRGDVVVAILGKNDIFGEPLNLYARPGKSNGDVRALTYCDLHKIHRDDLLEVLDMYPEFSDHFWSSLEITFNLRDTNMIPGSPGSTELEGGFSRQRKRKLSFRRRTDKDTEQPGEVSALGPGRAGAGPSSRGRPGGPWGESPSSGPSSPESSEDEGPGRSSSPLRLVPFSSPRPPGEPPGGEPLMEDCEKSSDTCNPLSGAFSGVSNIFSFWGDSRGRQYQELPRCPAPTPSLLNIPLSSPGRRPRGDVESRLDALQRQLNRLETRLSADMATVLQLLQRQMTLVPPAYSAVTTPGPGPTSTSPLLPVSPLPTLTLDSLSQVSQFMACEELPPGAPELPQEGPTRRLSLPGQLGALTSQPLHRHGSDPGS
Excerpt: (§3) Supplement jciinsight-9-173646-s083.xlsx, sheet "Supplemental Table S.2." | column: HOSU-53

[6] = In vivo p.o. PK in rat; conditions: po
Excerpt: as §3

[7] = Single-dose HOSU-53 PK in mice; type: in vivo, male C57BL/6 mice
Procedure: as §1

[8] = Micronucleus Test; conditions: 5 strain test with S9 activation (so in the source)
Excerpt: as §3

[9] = molecular target: CYP 2B6 (Homo sapiens, UniProt P20813); experiment: CYP inhibition 2B6; type: in vitro ADME
Sequence of CYP 2B6 (P20813 whole entry): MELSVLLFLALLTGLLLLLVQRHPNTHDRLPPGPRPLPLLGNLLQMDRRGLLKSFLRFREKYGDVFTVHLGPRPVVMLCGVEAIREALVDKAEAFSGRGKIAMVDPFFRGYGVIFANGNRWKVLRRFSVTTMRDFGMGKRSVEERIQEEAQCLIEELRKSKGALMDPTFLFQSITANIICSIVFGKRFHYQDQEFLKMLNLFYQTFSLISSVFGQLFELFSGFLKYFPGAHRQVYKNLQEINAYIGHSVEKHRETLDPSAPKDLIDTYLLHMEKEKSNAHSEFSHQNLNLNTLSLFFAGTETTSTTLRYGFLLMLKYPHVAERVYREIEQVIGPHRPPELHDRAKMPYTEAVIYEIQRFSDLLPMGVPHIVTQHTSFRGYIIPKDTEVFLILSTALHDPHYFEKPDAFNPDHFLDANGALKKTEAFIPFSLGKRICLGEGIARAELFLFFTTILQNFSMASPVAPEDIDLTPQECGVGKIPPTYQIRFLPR
Excerpt: as §3

[10] = molecular target: CYP 2C8 (Homo sapiens, UniProt P10632); experiment: CYP inhibition 2C8; type: in vitro ADME
Sequence of CYP 2C8 (P10632 whole entry): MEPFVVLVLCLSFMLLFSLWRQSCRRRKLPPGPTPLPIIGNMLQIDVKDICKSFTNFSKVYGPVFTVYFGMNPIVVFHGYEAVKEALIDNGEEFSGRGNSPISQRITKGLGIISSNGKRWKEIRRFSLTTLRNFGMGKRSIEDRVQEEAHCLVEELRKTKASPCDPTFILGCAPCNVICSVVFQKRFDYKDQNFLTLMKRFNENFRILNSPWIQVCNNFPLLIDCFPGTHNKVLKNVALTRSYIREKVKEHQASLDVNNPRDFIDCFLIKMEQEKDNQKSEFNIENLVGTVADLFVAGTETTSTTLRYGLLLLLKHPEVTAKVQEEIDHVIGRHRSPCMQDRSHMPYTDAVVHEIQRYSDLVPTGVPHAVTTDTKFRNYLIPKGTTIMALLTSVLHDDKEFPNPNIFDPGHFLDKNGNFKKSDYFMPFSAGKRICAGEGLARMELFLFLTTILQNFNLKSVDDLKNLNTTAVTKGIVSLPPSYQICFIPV
Excerpt: as §3

[11] = molecular target: CYP 2D6 (Homo sapiens, UniProt P10635); experiment: CYP inhibition 2D6; type: in vitro ADME
Sequence of CYP 2D6 (P10635 whole entry): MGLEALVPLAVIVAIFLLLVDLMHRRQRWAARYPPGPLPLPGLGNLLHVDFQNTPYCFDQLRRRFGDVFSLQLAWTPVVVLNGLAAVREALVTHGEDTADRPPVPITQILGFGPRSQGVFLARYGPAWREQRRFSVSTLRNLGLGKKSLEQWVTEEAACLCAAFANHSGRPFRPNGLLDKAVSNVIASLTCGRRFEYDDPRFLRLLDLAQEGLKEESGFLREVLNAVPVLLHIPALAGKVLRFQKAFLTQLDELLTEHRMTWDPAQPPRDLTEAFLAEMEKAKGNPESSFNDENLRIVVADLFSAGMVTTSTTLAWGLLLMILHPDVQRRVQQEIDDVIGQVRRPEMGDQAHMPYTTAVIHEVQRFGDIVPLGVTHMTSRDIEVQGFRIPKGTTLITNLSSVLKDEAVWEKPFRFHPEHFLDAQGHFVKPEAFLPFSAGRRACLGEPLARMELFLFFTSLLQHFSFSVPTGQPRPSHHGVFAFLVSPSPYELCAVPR
Excerpt: as §3

[12] = system: U937; experiment: MTS proliferation assay, U937; type: cell-based; conditions: Homo sapiens, U-937; U937, 96-hour treatment; read-out: IC50 (MTS proliferation)
Procedure: A total of 10,000–20,000 cells from different AML lines or 50,000–75,000 cells of primary AML blasts were treated in a 96-well plate for 72 hours or 96 hours at 37°C, 5% CO2. CellTiter 96 Aqueous MTS reagent (Promega) was added to cells followed by a 3-hour incubation at 37°C, 5% CO2. The absorbance was measured at 490 nm using DTX 880 plate reader, and the IC50 was calculated using GraphPad Prism.

[13] = male, C57BL/6, plasma, po, 10 mg/kg p.o. single dose, mouse

CCCCOc1cccc(-c2ccc(-c3cc(C(=O)O)c4cc(F)ccc4n3)cc2)c1 [HOSU-53]
DHO AUC (Figure 3C y value) ([1]; Day 1): 242.955 and 321.59 and 315.332
DHO AUC (Figure 3C y value) ([1]; Day 14): 411.662 and 445.373 and 347.096
DHO plasma concentration ([2]; 0.5 h postdose): 0.2422 µM
DHO plasma concentration ([2]; 1 h postdose, 10 mg/kg): 0.6072 µM and 0.4288 µM and 0.8412 µM
DHO plasma concentration ([2]; 2 h postdose, 10 mg/kg): 2.068 µM and 1.512 µM and 1.613 µM
DHO plasma concentration ([2]; 4 h postdose, 10 mg/kg): 2.783 µM and 2.701 µM and 3.7758 µM
DHO plasma concentration ([2]; 8 h postdose, 10 mg/kg): 6.325 µM and 4.807 µM and 6.894 µM
DHO plasma concentration ([2]; 24 h postdose, 10 mg/kg): 9.613 µM and 11.9535 µM and 9.74 µM
DHO plasma concentration ([2]; 48 h postdose, 10 mg/kg): 4.364 µM and 4.453 µM and 2.467 µM
DHO plasma concentration ([2]; 72 h postdose, 10 mg/kg): 1.189 µM and 0.9613 µM and 1.132 µM
alternative-target activity against kinase panel [3]: lack of alternative-target activity
Day of Study (survival, per animal) [4]: 57 days and 64 days and 43 days and 63 days and 58 days and 62 days and 65 days
IC50 [5]: > 30 µM
bioavailability ([6]; read-out: in vivo p.o. bioavailability (F)): 59%
half-life ([6]; read-out: in vivo p.o. t1/2 (converted)): 7.6 h
HOSU-53 plasma concentration ([7]; 10 mpk PO, 0.25 h postdose, per mouse): 130.695 µM and 175.464 µM
HOSU-53 plasma concentration ([7]; 10 mpk PO, 0.5 h postdose, per mouse): 155.968 µM and 199.774 µM
HOSU-53 plasma concentration ([7]; 10 mpk PO, 1 h postdose, per mouse): 185.332 µM and 227.213 µM
HOSU-53 plasma concentration ([7]; 10 mpk PO, 2 h postdose, per mouse): 171.131 µM and 199.774 µM
HOSU-53 plasma concentration ([7]; 10 mpk PO, 4 h postdose, per mouse): 168.002 µM and 190.146 µM
HOSU-53 plasma concentration ([7]; 10 mpk PO, 8 h postdose, per mouse): 182.925 µM and 197.848 µM
HOSU-53 plasma concentration ([7]; 10 mpk PO, 24 h postdose, per mouse): 152.839 µM and 120.105 µM
HOSU-53 plasma concentration ([7]; 10 mpk PO, 48 h postdose, per mouse): 81.835 µM and 67.6342 µM
HOSU-53 plasma concentration ([7]; 10 mpk PO, 72 h postdose, per mouse): 47.1755 µM and 36.5851 µM
concentration at 0.25 h ([7]; male, C57BL/6, mouse, plasma, oral, 10 mg/kg, 10 mpk PO, 0.25 h postdose, per mouse): 114 µM
concentration at 0.5 h ([7]; male, C57BL/6, mouse, plasma, oral, 10 mg/kg, 10 mpk PO, 0.5 h postdose, per mouse): 155 µM
concentration at 1 h ([7]; male, C57BL/6, mouse, plasma, oral, 10 mg/kg, 10 mpk PO, 1 h postdose, per mouse): 209 µM
concentration at 2 h ([7]; male, C57BL/6, mouse, plasma, oral, 10 mg/kg, 10 mpk PO, 2 h postdose, per mouse): 215 µM
concentration at 4 h ([7]; male, C57BL/6, mouse, plasma, oral, 10 mg/kg, 10 mpk PO, 4 h postdose, per mouse): 218 µM
concentration at 8 h ([7]; male, C57BL/6, mouse, plasma, oral, 10 mg/kg, 10 mpk PO, 8 h postdose, per mouse): 175 µM
concentration at 24 h ([7]; male, C57BL/6, mouse, plasma, oral, 10 mg/kg, 10 mpk PO, 24 h postdose, per mouse): 130 µM
concentration at 48 h ([7]; male, C57BL/6, mouse, plasma, oral, 10 mg/kg, 10 mpk PO, 48 h postdose, per mouse): 75.1 µM
concentration at 72 h ([7]; male, C57BL/6, mouse, plasma, oral, 10 mg/kg, 10 mpk PO, 72 h postdose, per mouse): 43.8 µM
bioavailability ([7]; male, C57BL/6, plasma, oral, p.o. 10 mg/kg vs i.v. 3 mg/kg, mouse, read-out: Bioavailability (F)): 85%
Cmax [7, 13]: 210 µM
half-life [7, 13]: 29 h
AUC(0-t) ([7]; male, C57BL/6, plasma, po, 10 mg/kg p.o. single dose, mouse, read-out: Plasma AUC0–72h): 7960 µM·h
Micronucleus Test [8]: Negative
IC50 [9]: 11.2 µM
IC50 [10]: 1.82 µM
IC50 [11]: 30.1 µM
IC50 [12]: 0.033 µM
